Like-named read-outs stand apart in the source and are kept apart here.
How the values were obtained:
[1] = molecular target: T1, mineralocorticoid receptor (MR) (Homo sapiens, UniProt P08235); test: Assay for agonist activity on mineralocorticoid receptor (luciferase reporter, HEK293 cells transfected with pBIND-MR plasmid); type: cell-based; settings: for Target selectivity MR/GR: ratio of EC50 values; for target selectivity: MR/GR and PR/GR, same experimental conditions
T1 sequence (P08235 726-984): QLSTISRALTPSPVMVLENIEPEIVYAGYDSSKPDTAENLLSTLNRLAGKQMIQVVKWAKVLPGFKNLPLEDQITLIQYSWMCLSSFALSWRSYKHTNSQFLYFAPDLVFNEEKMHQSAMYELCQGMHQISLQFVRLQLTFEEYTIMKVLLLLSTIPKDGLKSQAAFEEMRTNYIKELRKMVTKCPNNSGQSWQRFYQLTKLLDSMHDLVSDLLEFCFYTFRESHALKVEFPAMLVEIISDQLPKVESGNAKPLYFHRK
Procedure, shortened: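 HEK293 cells transiently transfected with pBIND-MR or pBIND-PR, seeded in phenol red-free DMEM with 5% charcoal-stripped serum. Compounds tested as 12-point 4-fold dilutions from 50 µM in duplicate, 0.1% DMSO blank. Luciferase luminescence read, EC50 by nonlinear fit.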

[2] = Determination of stability in plasma in vitro, human plasma (LC-MS/MS); type: in vitro ADME; settings: same experimental conditions (human and mouse plasma)
Procedure: Pharmacological Example 3: Determination of Stability in Plasma in Vitro
The stock solution was diluted with acetonitrile to obtain a working solution at a concentration of 100 µ M. The solution should be freshly prepared prior to use and maintained at room temperature during application.
990 µ L of human and mouse plasma (N = 2) were separately pipetted and pre-incubated at 37 °C for 5 min. Then, 10 µ L of the test compound working solution was added and vortexed thoroughly (the final concentration of the test compound was 1 µ M). Immediately, 50 µ L of the plasma sample was added to 150 µ L of ice-cold precipitation agent containing the internal standard and vortexed thoroughly as the 0-time sample. The remaining plasma sample was continuously incubated at 37 °C, and 50 µ L of the plasma sample was aspirated and added to 150 µ L of ice-cold precipitation agent containing the internal standard at preset sampling time points, followed by thorough vortexing. The collected samples were stored in a freezer at -60 to -90 °C until analysis.
The concentration of the test compound was determined by LC-MS/MS, and its degradation was monitored. (semi-quantitative determination was conducted by comparing the peak area of the analyte to that of the internal standard).

asthma model mice = test: Anti-asthma pharmacodynamic experiment: airway hyperresponsiveness (Penh) after methacholine challenge; type: in vivo, female BALB/c mice; settings: for Effects on airway hyperresponsiveness (Penh values) in mice: compared with the model group
Procedure: Pharmacological Example 4: Pharmacodynamic Experiment on Anti-Asthma
The suspensions were stored at room temperature protected from light until use.
Positive control drug: Budesonide Suspension for Inhalation (specification: 2 mL: 1 mg; AstraZeneca Inc.; Lot No. : 327392) was diluted with injection-grade sodium chloride solution to 0.3 mg/ml as the positive control drug, and stored at room temperature protected from light until use.
Sixty female BALB/c mice underwent a one-week adaptive feeding period. Ten mice were randomly selected as the blank control group, while 50 mice were selected to establish asthma models.
From days 21 to 23 after sensitization, the mice in the model group and drug administration group were exposed to a 30-minute aerosol challenge with 5% OVA, while the mice in the blank control group were exposed to normal saline aerosol for the same duration.
Airway responsiveness was measured in all groups of mice after the last challenge. The mice were placed into a plethysmography chamber, and baseline Penh values were recorded. Subsequently, the mice were challenged with aerosolized methacholine at concentrations from low to high of 0, 6.25, and 12.5 mg/mL, with an aerosol volume of 100 µ L each time for 60 s. […] Penh values were then recorded for 3 min and averaged to compare the airway responsiveness of each group of mice.
Statistical analysis was performed using SPSS software. Measurement data were expressed as mean ± standard deviation. One-way ANOVA was used for intergroup comparisons. For data with homogeneous variance, LSD test was used; for data with heterogeneous variance, Dunnett-t test was used. A value of P < 0.05 was considered statistically significant.

[3] = test system: dry eye syndrome model New Zealand rabbits; test: Dry eye syndrome experiment (benzalkonium chloride model): tear secretion test with phenol red cotton threads; type: in vivo, male New Zealand White rabbits; settings: for Wetting length of phenol red cotton threads (mm) D0 / Wetting length of phenol red cotton threads (mm) D3 / Wetting length of phenol red cotton threads (mm) D7 / Wetting length of phenol red cotton threads (mm) D15: 1 mg/mL, 50 µL/eye, 3 times a day for 14 days; for tear secretion: compared with the model group
Procedure: Positive control drug: Fluorometholone Eye Drops (specification: 5 mL/5 mg; Santen Pharmaceutical (CHINA) Co., Ltd.; Lot No.: 1FM6625) was used as the positive control drug and stored at room temperature protected from light until use.
Thirty male New Zealand White rabbits (conventional grade) were prepared. Six rabbits were randomly selected as the blank control group, and the remaining animals were administered 0.1% benzalkonium chloride to the left eye twice daily (morning and evening) , 10 µL/animal each time. On day 6 of modeling, tear secretion was measured using phenol red cotton threads to determine whether the model was successfully established. […] During the administration, all animals except the blank control group were administered 10 µL of 0.1% benzalkonium chloride to the left eye once daily to maintain dry eye symptoms..
• Test time: D3, D7, D15; • Test animals: All animals were tested before grouping; all enrolled surviving animals were tested after administration; • Test method: Tear secretion was measured using phenol red cotton threads. The tear secretion test paper was folded and placed at the middle and outer 1/3 of the rabbit palpebral conjunctival sac for 1 min. The test paper was then removed, observed, and recorded for its wetting length. The test was repeated 3 times, and the values were averaged.
The normality and homogeneity of variance were tested by Levene's test. If there was no statistical significance (P > 0.05), one-way analysis of variance (ANOVA) was used for statistical analysis. If ANOVA was statistically significant (P ≤ 0.05), LSD test (parametric method) was used for comparative analysis. If the variance was heterogeneous (P ≤ 0.05), Kruskal-Wallis test was used. If the Kruskal-Wallis test was statistically significant (P ≤ 0.05), Dunnett's test (nonparametric method) was used for comparative analysis.

[4] = Pharmacokinetic (PK) experiment in rats; type: in vivo, male SD rats; settings: same experimental conditions
Procedure: Pharmacological Example 11. Pharmacokinetic (PK) Experiment in Rats
The solution was prepared before administration.
Animals: 6 male SD rats, SPF grade (Beijing Vital River Laboratory Animal Technology Co., Ltd.).
Animal grouping: The animals were weighed prior to administration, and the dosage was calculated based on body weight. The animals in the oral administration group were fasted overnight (10-14 hours) before administration, and food was reintroduced 4 hours post-administration. Table 23. Animal grouping and drug administration dosages for pharmacokinetic (PK) experiment in rats
Blood collection time points: Blood was collected from the jugular vein at 2 min, 5 min, 15 min, 30 min, 1 h, 2 h, 4 h, 8 h, and 24 h after administration. Approximately 0.25 mL of blood was collected for each sample, anticoagulated with heparin sodium, and then placed on ice immediately.
Plasma sample processing: Blood samples were placed on ice after collection and centrifuged to separate plasma within 1 hour (centrifugation conditions: 6000 rpm, 3 minutes, 2-8 °C ). Plasma samples were stored in a -80°C freezer before analysis.
Data processing: Pharmacokinetic parameters were calculated using Phoenix WinNonlin 8.2.0 based on the plasma drug concentration data at different time points.

SMILES | EC50 ([1]; EC50 of agonist activity, HEK293 reporter cells, top concentration 50 µM, read-out: Nuclear receptor enzyme activity (nM) MR) | Target selectivity MR/GR [1] | plasma instability [2] | Penh values in mice, Methacholine concentration (mg/ml) 0 (asthma model mice; 0.3 mg/mL, 50 µL intratracheally once daily for 3 days, methacholine 0 mg/ml) | Penh values in mice, Methacholine concentration (mg/ml) 6.25 (asthma model mice; 0.3 mg/mL, 50 µL intratracheally once daily for 3 days, methacholine 6.25 mg/ml) | Penh values in mice, Methacholine concentration (mg/ml) 12.5 (asthma model mice; 0.3 mg/mL, 50 µL intratracheally once daily for 3 days, methacholine 12.5 mg/ml) | Effects on airway hyperresponsiveness (Penh values) in mice (asthma model mice) | Wetting length of phenol red cotton threads (mm) D0 [3] | Wetting length of phenol red cotton threads (mm) D3 [3] | Wetting length of phenol red cotton threads (mm) D7 [3] | Wetting length of phenol red cotton threads (mm) D15 [3] | tear secretion [3] | pharmacokinetic properties (plasma clearance rate, systemic exposure) [4] | target selectivity [1] | EC50 [1]
C[C@]12C=CC(=O)C=C1CC[C@H]1[C@@H]3C[C@H]4OC(c5ccc(CSC6CCOC6=O)cc5)O[C@@]4(C(=O)CO)[C@@]3(C)C[C@H](O)[C@@]12Cl (stereo partly drawn) [Compound 23, (6aS,6bR,7S,8aS,8bS,11aR,12aS,12bS)-6b-Chloro-7-hydroxy-8b-(2-hydroxyacetyl)-6a,8a-dimethyl-10-(4-(((2-oxotetrahydrofuran-3-yl)thio)methyl)phenyl)-1,2,6a,6b,7,8,8a,8b,11a,12,12a,12b-do decahydro-4H-naphtho[2',1':4,5]indeno[1,2-d][1,3]dioxol-4-one] | > 50000 nM | > 2.4×10^5 | exhibited the characteristic of plasma instability | 1.12 ± 0.30 | 1.55 ± 0.29 | 1.84 ± 0.38 | significantly decreased the Penh values in mice | 28.24 ± 6.22 mm | 29.4 ± 4.63 mm | 31.88 ± 6.20 mm | 36.05 ± 5.74" mm | significantly increased the tear secretion on day 15 | pharmacokinetic properties similar to those of compound 8 |  | 
C[C@]12C=CC(=O)C=C1[C@@H](F)C[C@H]1[C@@H]3C[C@H]4OC(c5ccc(CSC6CCOC6=O)nc5)O[C@@]4(C(=O)CO)[C@@]3(C)C[C@H](O)[C@@]12F (stereo partly drawn) [Compound 46, (25,6aS,6bR,78,8a8,8bS,11aR,12a8,12b8S)-2,6b-Difluoro-7-hydroxy-8b-(2-hydroxyacetyl)-6a,8a-dimethyl-10-(6-(((2-oxotetrahydrofuran-3-yl)thio)methyl)pyridin-3-yl)-1,2,6a,6b,7,8,8a,8b,11a,12, 12a,12b-dodecahydro-4H-naphtho[2',1':4,5]indeno[1,2-d][1,3]dioxol-4-one] |  |  | exhibited the characteristic of plasma instability |  |  |  | significantly decreased the Penh values in mice |  |  |  |  | significantly increased the tear secretion | pharmacokinetic properties similar to those of compound 8 | target selectivity comparable to that of compound 23 | 
C[C@]12C=CC(=O)C=C1CC[C@H]1[C@@H]3C[C@H]4OC(c5ccc(COC6CCOC6=O)cc5)O[C@@]4(C(=O)CO)[C@@]3(C)C[C@H](O)[C@@]12F (stereo partly drawn) [Compound 16, (6aS,6bR,7S,8aS,8bS,11aR,12aS,12bS)-6b-Fluoro-7-hydroxy-8b-(2-hydroxyacetyl)-6a,8a-dimethyl-10-(4-(((2-oxotetrahydrofuran-3-yl)oxy)methyl)phenyl)-1,2,6a,6b,7,8,8a,8b,11a,12,12a,12b-do decahydro-4H-naphtho[2',1':4,5]indeno[1,2-d][1,3]dioxol-4-one] |  | > 1.2×10^5 | exhibited the characteristic of plasma instability |  |  |  | significantly decreased the Penh values in mice |  |  |  |  | significantly increased the tear secretion | pharmacokinetic properties similar to those of compound 8 |  | > 50000 nM
C[C@]12C=CC(=O)C=C1CC[C@H]1[C@@H]3C[C@H]4OC(c5ccc(CSC6COC(=O)C6)cc5Cl)O[C@@]4(C(=O)CO)[C@@]3(C)C[C@H](O)[C@@]12F (stereo partly drawn) [Compound 20, (6aS,6bR,7S,8aS,8bS,11aR,12aS,12bS)-10-(2-Chloro-4-(((5-oxotetrahydrofuran-3-yl)thio)methyl)phenyl)-6b-fluoro-7-hydroxy-8b-(2-hydroxyacetyl)-6a,8a-dimethyl-1,2,6a,6b,7,8,8a,8b,11a,12,12a, 12b-dodecahydro-4H-naphtho[2',1':4,5]indeno[1,2-d][1,3]dioxol-4-one] |  |  | exhibited the characteristic of plasma instability |  |  |  | significantly decreased the Penh values in mice | 27.76 ± 6.04 mm | 23.39 ± 3.93 mm | 29.78 ± 2.74 mm | 35.28 ± 3.21 mm | significantly increased the tear secretion on day 15 | pharmacokinetic properties similar to those of compound 8 | target selectivity comparable to that of compound 23 | 
C[C@]12C=CC(=O)C=C1CC[C@H]1[C@@H]3C[C@H]4OC(c5ccc(CSC6CCOC6=O)cn5)O[C@@]4(C(=O)CO)[C@@]3(C)C[C@H](O)[C@@]12Cl (stereo partly drawn) [Compound 51, (6aS,6bR,7S,8aS,8bS,11aR,12aS,12bS)-6b-Chloro-7-hydroxy-8b-(2-hydroxyacetyl)-6a,8a-dimethyl-10-(5-(((2-oxotetrahydrofuran-3-yl)thio)methyl)pyridin-2-yl)-1,2,6a,6b,7,8,8a,8b,11a,12,12a,12 b-dodecahydro-4H-naphtho[2',1':4,5]indeno[1,2-d][1,3]dioxol-4-one] |  |  | exhibited the characteristic of plasma instability |  |  |  | significantly decreased the Penh values in mice |  |  |  |  | significantly increased the tear secretion | pharmacokinetic properties similar to those of compound 8 | target selectivity comparable to that of compound 23 | 
C[C@]12C=CC(=O)C=C1CC[C@H]1[C@@H]3C[C@H]4OC(c5ccc(CSC6CCOC6=O)nc5)O[C@@]4(C(=O)CO)[C@@]3(C)C[C@H](O)[C@@]12F (stereo partly drawn) [Compound 47, (6aS,6bR,7S,8aS,8bS,11aR,12aS,12bS)-6b-Fluoro-7-hydroxy-8b-(2-hydroxyacetyl)-6a,8a-dimethyl-10-(6-(((2-oxotetrahydrofuran-3-yl)thio)methyl)pyridin-3-yl)-1,2,6a,6b,7,8,8a,8b,11a,12,12a,12 b-dodecahydro-4H-naphtho[2',1':4,5]indeno[1,2-d][1,3]dioxol-4-one] |  | > 1.5×10^5 | exhibited the characteristic of plasma instability |  |  |  | significantly decreased the Penh values in mice |  |  |  |  | significantly increased the tear secretion | pharmacokinetic properties similar to those of compound 8 |  | > 50000 nM
C[C@]12C=CC(=O)C=C1CC[C@H]1[C@@H]3C[C@H]4OC(c5ccc(CNC6COC(=O)C6)cc5)O[C@@]4(C(=O)CO)[C@@]3(C)C[C@H](O)[C@@]12F (stereo partly drawn) [Compound 21, (6aS,6bR,7S,8aS,8bS,11aR,12aS,12bS)-6b-Fluoro-7-hydroxy-8b-(2-hydroxyacetyl)-6a,8a-dimethyl-10-(4-(((5-oxotetrahydrofuran-3-yl)amino)methyl)phenyl)-1,2,6a,6b,7,8,8a,8b,11a,12,12a,12b-dodecahydro-4H-naphtho[2',1':4,5]indeno[1,2-d][1,3]dioxol-4-one] |  |  | exhibited the characteristic of plasma instability |  |  |  | significantly decreased the Penh values in mice |  |  |  |  | significantly increased the tear secretion | pharmacokinetic properties similar to those of compound 8 | target selectivity comparable to that of compound 23 | 

From patent EP4635969A1, “NOVEL GLUCOCORTICOID, METHOD FOR PREPARING SAME, AND USE THEREOF” (Tianjin Pharmaceutical Biotechnology Co., Ltd., priority 2022, dated 2024)
